Data published in patent US7935672B2, “Derivatives of genkwanin and sakuranetin, cosmetic and therapeutic use thereof and preparation method of same” (priority 2004, dated 2011).

Key:
lymphoblasts = conditions: serious immune disorders; FR 2 510 580 A, FR 2 597 751 A, Lin et al. 2001; cited from earlier work
human blood cells = assay: human blood cells, proliferation and expression of membrane markers (Tests H); type: cell-based; conditions: for proliferation of the blood cells of the immune response: 24 or 48 hours at 37° C.
IL-2 = IL-2 content of cell supernatants after PHA or SEB stimulation (Tests H); conditions: following stimulation with PHA or SEB; FIGS. 2 and 3
leukoblasts = assay: antiblastic effect, activity against cancers and leukemias (method not described)
[1] = side effects on topical, oral or injected administration (method not described); conditions: administered topically, orally or by injection

Structure (SMILES) | effect on lymphoblasts formed in hyperplasia (lymphoblasts) | antibody production for the B lymphocytes (human blood cells) | class II MHCs for dendritic cells (human blood cells) | proliferation of the blood cells of the immune response (human blood cells) | IL-2 production (IL-2) | activity against certain acute cancers and leukemias (antiblastic effect) and chronic myeloid leukemia (leukoblasts) | harmful side effects [1]
COc1cc(O[C@@H]2O[C@H](CO[C@@H]3OC[C@@H](O)[C@H](O)[C@H]3O)[C@@H](O)[C@H](O)[C@H]2O)c2c(=O)cc(-c3ccc(O)cc3)oc2c1 [5-O-β-D-primeverosyl-genkwanin] | destroys the lymphoblasts formed | – | – | – | – | – | –
COc1cc(OC2OC(COC3OCC(O)C(O)C3O)C(O)C(O)C2O)c2c(=O)cc(-c3ccc(O)cc3)oc2c1 [Ex. 2, 5-O-β-D-primeverosyl-genkwanin] | – | decrease | decrease | do not induce proliferation | inhibition | – | –
CCOc1ccc(C2CC(=O)c3c(cc(OC)cc3OC3OC(COC4OC(CO)C(O)C(O)C4O)C(O)C(O)C3O)O2)cc1 [Ex. 5, 2,3-dihydro-5-[O-6-(D-gluocpyranosyl)-β-D-glucopyranosyl]oxy-2-(4-ethoxyphenyl)-7-methoxy-4H-1-benzopyran-4-one] | – | decrease | decrease | do not induce proliferation | inhibition | – | –
CCOc1ccc(-c2cc(=O)c3c(OC4OC(COC5OC(CO)C(O)C(O)C5O)C(O)C(O)C4O)cc(OC)cc3o2)cc1 [Ex. 8, 5-[O-6-(D-glucopyranosyl)-β-D-glucopyranosyl]oxy-2-(4-ethoxyphenyl)-7-methoxy-4H-1-benzopyran-4-one] | – | – | – | – | – | particularly active | virtual absence
